The target of one assay is SOS1-KRas (G12C) (Homo sapiens (Human), UniProt Q07889). Kind of assay: SOS1-KRas (G12C) FRET Assay. The assay is classed as binding.
Sequence of SOS1-KRas (G12C) (Q07889 564-1049, stated change not applied): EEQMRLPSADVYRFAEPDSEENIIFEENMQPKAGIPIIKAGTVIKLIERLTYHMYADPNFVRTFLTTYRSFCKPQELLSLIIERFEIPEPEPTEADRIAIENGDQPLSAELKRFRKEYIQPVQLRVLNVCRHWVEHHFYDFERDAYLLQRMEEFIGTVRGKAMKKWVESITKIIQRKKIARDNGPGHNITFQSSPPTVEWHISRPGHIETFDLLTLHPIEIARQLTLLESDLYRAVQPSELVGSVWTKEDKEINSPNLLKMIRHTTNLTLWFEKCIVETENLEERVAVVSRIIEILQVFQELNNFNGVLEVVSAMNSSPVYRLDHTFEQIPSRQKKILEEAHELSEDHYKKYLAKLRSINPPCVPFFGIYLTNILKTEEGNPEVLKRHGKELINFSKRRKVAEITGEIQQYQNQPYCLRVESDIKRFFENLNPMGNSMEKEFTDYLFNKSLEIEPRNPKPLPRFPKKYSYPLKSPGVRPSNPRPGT
Settings: not given
One may read the IC50 as the concentration that inhibits the measured activity by half. Read a low IC50 as greater potency. As for `C[C@@H](NC(=O)c1cc(N2CCOCC2)c(F)cc1NC12CC(N(C)C)(C1)C2)c1cccc(C(F)F)c1F` [Example 53, (R)—N-(1-(3-(difluoromethyl)-2-fluorophenyl)ethyl)-2-((3-(dimethylamino)bicyclo[1.1.1]pentan-1-yl)amino)-4-fluoro-5-morpholinobenzamide], inhibition was half-maximal at 77.3 nM (IC50).

On to `Cc1c([C@@H](C)NC(=O)c2cc(-c3cnn(C)c3)c(F)cc2NC2CCN(C)CC2)cccc1C(F)(F)F` [Example 11, (R)-4-fluoro-5-(1-methyl-1H-pyrazol-4-yl)-N-(1-(2-methyl-3-(trifluoromethyl)phenyl)ethyl)-2-((1-methylpiperidin-4-yl)amino)benzamide], for which inhibition was half-maximal at 149 nM (IC50).

The compound `C[C@@H](NC(=O)c1cc(N2CCN(C)CC2)c(F)cc1NC1CCN(C)CC1)c1cccc(C(F)F)c1F` [Example 5, (R)—N-(1-(3-(difluoromethyl)-2-fluorophenyl)ethyl)-4-fluoro-5-(4-methylpiperazin-1-yl)-2-((1-methylpiperidin-4-yl)amino)benzamide] came in with an IC50 of 24.3 nM. Still for that read-out and setting: then `C[C@@H]1CC(F)(F)CN1c1cc(C(=O)N[C@H](C)c2cccc(C(F)F)c2F)c(NC2CCN(C)CC2)cc1F` (single isomer, unassigned) [Example 36], with 97.5 nM; and `C[C@@H](NC(=O)c1cc(N2CCOCC2)c(F)cc1NC1CCN(C)CC1)c1cccc(C(F)F)c1F` [Example 1, (R)—N-(1-(3-(difluoromethyl)-2-fluorophenyl)ethyl)-4-fluoro-2-((1-methylpiperidin-4-yl)amino)-5-morpholinobenzamide], with 20.2 nM.

The same assay, now with this note: inhibition of SOS1:KRAS interaction; 0.5 nM His10-SOS1 (res. 564-1049), 2.5 nM GST-KRAS (res. 1-169, G12C); 2 hrs at RT.
With `CC(C)NC(=O)c1cc(C(=O)N[C@H](C)c2cccc(C(F)F)c2F)c(NC2CCN(C)CC2)cc1F` [Example 76, (R)—N1-(1-(3-(difluoromethyl)-2-fluorophenyl)ethyl)-4-fluoro-N3-isopropyl-6-((1-methylpiperidin-4-yl)amino)isophthalamide], the IC50 was 874 nM.

As to `C[C@@H](NC(=O)c1cc(C(=O)N(C)C)c(F)cc1NC1CCN(C)CC1)c1cccc(C(F)F)c1F` [Example 75, (R)—N1-(1-(3-(difluoromethyl)-2-fluorophenyl)ethyl)-4-fluoro-N3,N3-dimethyl-6-((1-methylpiperidin-4-yl)amino)isophthalamide], the IC50 came out at 244 nM.

`C[C@@H](NC(=O)c1cc(-c2ccnnc2)c(F)cc1NC1CCN(C)CC1)c1cccc(C(F)F)c1F` [Example 65, (R)-N-(1-(3-(difluoromethyl)-2-fluorophenyl)ethyl)-4-fluoro-2-((1-methylpiperidin-4-yl)amino)-5-(pyridazin-4-yl)benzamide]: the IC50 worked out at 6.9 nM.

For the compound `C[C@@H](NC(=O)c1cc(N2CCCC2)c(F)cc1N[C@@H]1CN2CCC1CC2)c1cccc(C(F)F)c1F` [Example 32, N—((R)-1-(3-(difluoromethyl)-2-fluorophenyl)ethyl)-4-fluoro-5-(pyrrolidin-1-yl)-2-(((S)-quinuclidin-3-yl)amino)benzamide], the IC50 came to 133 nM. Same read-out and setting: the value for `C[C@@H](NC(=O)c1cc(C2CC2)c(F)cc1NC1CCN(C)CC1)c1cccc(C(F)F)c1F` [Example 67, (R)-5-cyclopropyl-N-(1-(3-(difluoromethyl)-2-fluorophenyl)ethyl)-4-fluoro-2-((1-methylpiperidin-4-yl)amino)benzamide] was 216 nM; that for `C[C@@H](NC(=O)c1cc(N2CCOCC2)c(Cl)cc1N[C@H]1CN2CCC1CC2)c1cccc(C(F)F)c1F` [Example 80, 4-chloro-N—((R)-1-(3-(difluoromethyl)-2-fluorophenyl)ethyl)-5-morpholino-2-(((R)-quinuclidin-3-yl)amino)benzamide] was 44.3 nM. The compound `C[C@@H](NC(=O)c1cc(-c2ccncc2)c(F)cc1NC1CCN(C)CC1)c1cccc(C(F)F)c1F` [Example 57, (R)—N-(1-(3-(difluoromethyl)-2-fluorophenyl)ethyl)-4-fluoro-2-((1-methylpiperidin-4-yl)amino)-5-(pyridin-4-yl)benzamide] showed an IC50 of 9.8 nM. On the same count and under the same terms, then `C[C@@H](NC(=O)c1cc(N2CCOCC2)c(F)cc1NC(C)(C)CN(C)C)c1cccc(C(F)F)c1F` [Example 52, (R)—N-(1-(3-(difluoromethyl)-2-fluorophenyl)ethyl)-2-((1-(dimethylamino)-2-methylpropan-2-yl)amino)-4-fluoro-5-morpholinobenzamide], with 64.8 nM; and `Cc1c([C@@H](C)NC(=O)c2cc(-c3cnoc3)c(F)cc2NC2CCN(C)CC2)cccc1C(F)(F)F` [Example 61, (R)-4-fluoro-5-(isoxazol-4-yl)-N-(1-(2-methyl-3-(trifluoromethyl)phenyl)ethyl)-2-((1-methylpiperidin-4-yl)amino)benzamide], with 130 nM. On the same count and under the same terms, the value for `Cc1c(C#N)cccc1[C@@H](C)NC(=O)c1cc(N2CCOCC2)c(F)cc1NC1CCN(C)CC1` [Example 46, (R)—N-(1-(3-cyano-2-methylphenyl)ethyl)-4-fluoro-2-((1-methylpiperidin-4-yl)amino)-5-morpholinobenzamide] was 74.6 nM. Still for that read-out and setting: then `C[C@@H](NC(=O)c1cc(N2CCOCC2)c(F)cc1NCCN)c1cccc(C(F)F)c1F` [Example 47, (R)-2-((2-aminoethyl)amino)-N-(1-(3-(difluoromethyl)-2-fluorophenyl)ethyl)-4-fluoro-5-morpholinobenzamide], with 33.7 nM; and `C[C@@H](NC(=O)c1cc(N2CCOC(F)(F)C2)c(F)cc1NC1CCN(C)CC1)c1cccc(C(F)F)c1F` [Example 40, (R)-N-(1-(3-(difluoromethyl)-2-fluorophenyl)ethyl)-5-(2,2-difluoromorpholino)-4-fluoro-2-((1-methylpiperidin-4-yl)amino)benzamide], with 21.9 nM; and `C[C@@H](NC(=O)c1cc(N2CC3COCC(C3)C2)c(F)cc1NC1CCN(C)CC1)c1cccc(C(F)F)c1F` [Example 38, 5-(3-oxa-7-azabicyclo[3.3.1]nonan-7-yl)-N-((R)-1-(3-(difluoromethyl)-2-fluorophenyl)ethyl)-4-fluoro-2-((1-methylpiperidin-4-yl)amino)benzamide], with 35.7 nM.

Compound `C[C@@H](NC(=O)c1cc(N2CC[C@@]3(CCOC3)C2)c(F)cc1NC1CCN(C)CC1)c1cccc(C(F)F)c1F` (single isomer, unassigned) [Example 30] returned an IC50 of 39.6 nM. Same read-out and setting: the value for `Cc1c([C@@H](C)NC(=O)c2cc(-c3ccncc3)c(F)cc2NC2CCN(C)CC2)cccc1C(F)(F)F` [Example 56, (R)-4-fluoro-N-(1-(2-methyl-3-(trifluoromethyl)phenyl)ethyl)-2-((1-methylpiperidin-4-yl)amino)-5-(pyridin-4-yl)benzamide] was 34.8 nM; that for `C[C@@H](NC(=O)c1cc(N2CC3CCCC(C2)O3)c(F)cc1NC1CCN(C)CC1)c1cccc(C(F)F)c1F` [Example 41, 5-(9-oxa-3-azabicyclo[3.3.1]nonan-3-yl)-N-((R)-1-(3-(difluoromethyl)-2-fluorophenyl)ethyl)-4-fluoro-2-((1-methylpiperidin-4-yl)amino)benzamide] was 33.3 nM; that for `C[C@@H](NC(=O)c1cc(N2CCOCC2)c(F)cc1N[C@H]1CN2CCC1CC2)c1cccc(C(C)(F)F)c1F` [Example 43, N—((R)-1-(3-(1,1-difluoroethyl)-2-fluorophenyl)ethyl)-4-fluoro-5-morpholino-2-(((R)-quinuclidin-3-yl)amino)benzamide] was 15.1 nM.

In turn, `C[C@@H](NC(=O)c1cc(N2CCC2)c(F)cc1N[C@H]1CN2CCC1CC2)c1cccc(C(F)F)c1F` [Example 29, 5-(azetidin-1-yl)-N—((R)-1-(3-(difluoromethyl)-2-fluorophenyl)ethyl)-4-fluoro-2-(((R)-quinuclidin-3-yl)amino)benzamide] displayed an IC50 of 205 nM. As for `C[C@@H](NC(=O)c1cc(N2CCOCC2)c(F)cc1N[C@@H]1CN2CCC1CC2)c1cccc(C(C)(F)F)c1F` [Example 42, N—((R)-1-(3-(1,1-difluoroethyl)-2-fluorophenyl)ethyl)-4-fluoro-5-morpholino-2-(((S)-quinuclidin-3-yl)amino)benzamide], the IC50 was found to be 49.5 nM. The same measure, in the same setting: the value for `C[C@@H](NC(=O)c1cc(N2CCCC2)c(F)cc1N[C@H]1CN2CCC1CC2)c1cccc(C(F)F)c1F` [Example 33, N—((R)-1-(3-(difluoromethyl)-2-fluorophenyl)ethyl)-4-fluoro-5-(pyrrolidin-1-yl)-2-(((R)-quinuclidin-3-yl)amino)benzamide] was 35 nM; that for `C[C@@H](NC(=O)c1cc(N2CCOCC2)c(F)cc1N[C@@H]1[C@@H]2C[C@H]1CN(C)C2)c1cccc(C(F)F)c1F` [Example 17, N—((R)-1-(3-(difluoromethyl)-2-fluorophenyl)ethyl)-4-fluoro-2-(((1R,5S,6s)-3-methyl-3-azabicyclo[3.1.1]heptan-6-yl)amino)-5-morpholinobenzamide] was 98.9 nM. Same read-out and setting: then `Cc1c([C@@H](C)NC(=O)c2cc(N3CC4(C3)CS(=O)(=O)C4)c(F)cc2NC2CCN(C)CC2)cccc1C(F)(F)F` [Example 8, (R)-5-(2,2-dioxido-2-thia-6-azaspiro[3.3]heptan-6-yl)-4-fluoro-N-(1-(2-methyl-3-(trifluoromethyl)phenyl)ethyl)-2-((1-methylpiperidin-4-yl)amino)benzamide], with 74.5 nM.

Compound `CC(=O)N1CCN(c2cc(C(=O)N[C@H](C)c3cccc(C(F)(F)F)c3C)c(NC3CCN(C)CC3)cc2F)CC1` [Example 22, (R)-5-(4-acetylpiperazin-1-yl)-4-fluoro-N-(1-(2-methyl-3-(trifluoromethyl)phenyl)ethyl)-2-((1-methylpiperidin-4-yl)amino)benzamide] came in with an IC50 of 20.6 nM. Still for that read-out and setting: the value for `C[C@@H](NC(=O)c1cc(N2CCOCC2)c(Cl)cc1N[C@@H]1CN2CCC1CC2)c1cccc(C(F)F)c1F` [Example 81, 4-chloro-N—((R)-1-(3-(difluoromethyl)-2-fluorophenyl)ethyl)-5-morpholino-2-(((S)-quinuclidin-3-yl)amino)benzamide] was 12.6 nM.

The values above are taken from US20250368634A1, “PHENYL AMIDE COMPOUNDS AND METHODS OF USE” (SCHRÖDINGER, INC., priority 2022, published 2025).
